Data as given in ChEMBL document CHEMBL4270512, “Harnessing pyrrolidine iminosugars into dimeric structures for the rapid discovery of divalent glycosidase inhibitors” (Eur J Med Chem, 2018).
Activity calls are given as the source filed them. The calls are words filed in the database; no cut-off is given here.

Legend:
Homo sapiens = species on record: Homo sapiens; test: Inhibition of human alpha-fucosidase at 0.1 mM using p-nitrophenyl glycopyranoside as substrate preincubated for 5 mins followed by substrate addition and measured after 20 mins by visible absorption spectroscopic analysis
Beta-galactosidase [1] = molecular target: T1, Beta-galactosidase (Bos taurus, UniProt Q58D55); test: Inhibition of bovine liver beta-galactosidase using p-nitrophenyl glycopyranoside as substrate preincubated for 5 mins followed by substrate addition and measured after 20 mins by visible absorption spectroscopic analysis
T1 sequence (Q58D55 whole entry): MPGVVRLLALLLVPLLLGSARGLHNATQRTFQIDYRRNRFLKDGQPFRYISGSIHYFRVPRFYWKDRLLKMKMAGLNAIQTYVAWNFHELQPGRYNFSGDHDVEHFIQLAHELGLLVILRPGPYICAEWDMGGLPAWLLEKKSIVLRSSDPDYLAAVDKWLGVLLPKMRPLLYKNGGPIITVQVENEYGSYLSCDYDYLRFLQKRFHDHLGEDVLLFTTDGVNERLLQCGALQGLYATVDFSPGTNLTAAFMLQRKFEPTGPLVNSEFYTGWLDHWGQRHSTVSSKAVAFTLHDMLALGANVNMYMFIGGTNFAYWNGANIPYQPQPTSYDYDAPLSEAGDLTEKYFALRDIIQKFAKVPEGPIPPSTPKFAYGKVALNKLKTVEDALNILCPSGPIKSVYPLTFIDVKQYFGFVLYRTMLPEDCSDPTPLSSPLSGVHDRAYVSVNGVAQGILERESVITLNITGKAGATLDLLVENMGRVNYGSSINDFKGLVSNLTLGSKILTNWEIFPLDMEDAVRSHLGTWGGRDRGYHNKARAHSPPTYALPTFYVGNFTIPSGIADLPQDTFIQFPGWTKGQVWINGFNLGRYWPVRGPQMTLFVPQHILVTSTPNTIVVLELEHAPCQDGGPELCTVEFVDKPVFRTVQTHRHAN

[2] = Inhibition of bovine kidney alpha-fucosidase at 0.1 mM using p-nitrophenyl glycopyranoside as substrate preincubated for 5 mins followed by substrate addition and measured after 20 mins by visible absorption spectroscopic analysis relative to control; parameters: species or system Bos taurus
Beta-galactosidase [3] = molecular target: T1, Beta-galactosidase; test: Competitive inhibition of bovine liver beta-galactosidase using p-nitrophenyl glycopyranoside as substrate preincubated for 5 mins followed by substrate addition and measured after 20 mins by Lineweaver-Burk plot analysis
[4] = molecular target: T2, Alpha-mannosidase (Canavalia ensiformis) (UniProt C0HJB3); test: Inhibition of jack beans alpha-mannosidase at 0.1 mM using p-nitrophenyl glycopyranoside as substrate preincubated for 5 mins followed by substrate addition and measured after 20 mins by visible absorption spectroscopic analysis
T2 sequence (whole entry): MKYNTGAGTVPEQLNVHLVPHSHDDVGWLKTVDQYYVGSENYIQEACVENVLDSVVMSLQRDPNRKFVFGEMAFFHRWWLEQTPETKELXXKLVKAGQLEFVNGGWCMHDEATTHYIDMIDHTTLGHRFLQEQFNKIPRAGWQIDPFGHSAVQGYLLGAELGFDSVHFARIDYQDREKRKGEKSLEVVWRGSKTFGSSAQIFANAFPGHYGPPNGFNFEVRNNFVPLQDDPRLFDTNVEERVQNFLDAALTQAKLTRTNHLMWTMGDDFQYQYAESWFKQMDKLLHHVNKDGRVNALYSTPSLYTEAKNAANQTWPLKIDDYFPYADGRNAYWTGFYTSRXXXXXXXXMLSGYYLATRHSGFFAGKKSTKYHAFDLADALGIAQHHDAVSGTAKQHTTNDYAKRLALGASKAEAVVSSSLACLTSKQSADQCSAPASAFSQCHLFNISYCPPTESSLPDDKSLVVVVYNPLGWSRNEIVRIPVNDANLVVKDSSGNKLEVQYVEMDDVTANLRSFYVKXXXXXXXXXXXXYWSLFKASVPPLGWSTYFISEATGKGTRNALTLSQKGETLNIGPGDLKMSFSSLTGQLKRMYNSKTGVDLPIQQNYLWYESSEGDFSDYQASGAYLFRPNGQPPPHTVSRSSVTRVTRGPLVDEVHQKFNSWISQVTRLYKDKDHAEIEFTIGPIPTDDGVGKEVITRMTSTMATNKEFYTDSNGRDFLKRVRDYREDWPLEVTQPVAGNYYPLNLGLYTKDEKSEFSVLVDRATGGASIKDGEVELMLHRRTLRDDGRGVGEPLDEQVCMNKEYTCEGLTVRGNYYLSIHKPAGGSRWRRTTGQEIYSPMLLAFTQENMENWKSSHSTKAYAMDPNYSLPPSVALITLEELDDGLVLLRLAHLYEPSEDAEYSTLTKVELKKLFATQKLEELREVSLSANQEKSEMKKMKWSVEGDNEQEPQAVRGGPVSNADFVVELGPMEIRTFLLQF

Canavalia ensiformis = test: Inhibition of jack beans beta-N-acetylglucosaminidase at 0.1 mM using p-nitrophenyl glycopyranoside as substrate preincubated for 5 mins followed by substrate addition and measured after 20 mins by visible absorption spectroscopic analysis
[5] = molecular target: Alpha-galactosidase (Coffea arabica) (UniProt Q42656); test: Inhibition of coffee beans alpha-galactosidase at 0.1 mM using p-nitrophenyl glycopyranoside as substrate preincubated for 5 mins followed by substrate addition and measured after 20 mins by visible absorption spectroscopic analysis
Alpha-galactosidase (Coffea arabica), sequence (Q42656 16-378 limits assumed): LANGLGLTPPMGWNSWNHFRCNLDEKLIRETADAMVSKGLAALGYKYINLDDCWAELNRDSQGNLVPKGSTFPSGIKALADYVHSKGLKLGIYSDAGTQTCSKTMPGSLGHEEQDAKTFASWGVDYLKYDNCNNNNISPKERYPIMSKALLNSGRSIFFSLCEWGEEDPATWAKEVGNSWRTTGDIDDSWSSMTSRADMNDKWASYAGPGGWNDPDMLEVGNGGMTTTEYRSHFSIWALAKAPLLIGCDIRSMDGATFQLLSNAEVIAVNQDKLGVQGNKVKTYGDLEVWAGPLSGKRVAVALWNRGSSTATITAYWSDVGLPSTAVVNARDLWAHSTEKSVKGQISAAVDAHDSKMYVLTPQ

Aspergillus niger = test: Inhibition of Aspergillus niger amyloglucosidase at 0.1 mM using p-nitrophenyl glycopyranoside as substrate preincubated for 5 mins followed by substrate addition and measured after 20 mins by visible absorption spectroscopic analysis
Saccharomyces cerevisiae = test: Inhibition of Saccharomyces cerevisiae alpha-glucosidase at 0.1 mM using p-nitrophenyl glycopyranoside as substrate preincubated for 5 mins followed by substrate addition and measured after 20 mins by visible absorption spectroscopic analysis
Prunus dulcis = test: Inhibition of almond beta-glucosidase at 0.1 mM using p-nitrophenyl glycopyranoside as substrate preincubated for 5 mins followed by substrate addition and measured after 20 mins by visible absorption spectroscopic analysis
Oryza sativa = test: Inhibition of rice beta-glucosidase at 0.1 mM using p-nitrophenyl glycopyranoside as substrate preincubated for 5 mins followed by substrate addition and measured after 20 mins by visible absorption spectroscopic analysis
Cornu aspersum = test: Inhibition of snail beta-mannosidase at 0.1 mM using p-nitrophenyl glycopyranoside as substrate preincubated for 5 mins followed by substrate addition and measured after 20 mins by visible absorption spectroscopic analysis
[6] = molecular target: T3, Beta-galactosidase (Bos taurus) (UniProt Q58D55); test: Inhibition of bovine liver beta-galactosidase at 0.1 mM using p-nitrophenyl glycopyranoside as substrate preincubated for 5 mins followed by substrate addition and measured after 20 mins by visible absorption spectroscopic analysis
T3 sequence (whole entry): T1 sequence (Q58D55 whole entry)

[7] = Inhibition of human alpha-fucosidase using p-nitrophenyl glycopyranoside as substrate preincubated for 5 mins followed by substrate addition and measured after 20 mins by visible absorption spectroscopic analysis
[8] = Inhibition of bovine kidney alpha-fucosidase using p-nitrophenyl glycopyranoside as substrate preincubated for 5 mins followed by substrate addition and measured after 20 mins by visible absorption spectroscopic analysis; parameters: species or system Bos taurus
Bos taurus [9] = species on record: Bos taurus; test: Inhibition of bovine kidney alpha-fucosidase at 5 uM using p-nitrophenyl glycopyranoside as substrate preincubated for 5 mins followed by substrate addition and measured after 20 mins by visible absorption spectroscopic analysis relative to control
Bos taurus [10] = species on record: Bos taurus; test: Inhibition of bovine kidney alpha-fucosidase at 0.120 uM using p-nitrophenyl glycopyranoside as substrate preincubated for 5 mins followed by substrate addition and measured after 20 mins by visible absorption spectroscopic analysis relative to control
Bos taurus [11] = species on record: Bos taurus; test: Inhibition of bovine kidney alpha-fucosidase at 0.120 uM using p-nitrophenyl glycopyranoside as substrate preincubated for 5 mins followed by substrate addition and measured after 20 mins by visible absorption spectroscopic analysis
[12] = Competitive inhibition of bovine kidney alpha-fucosidase using p-nitrophenyl glycopyranoside as substrate preincubated for 5 mins followed by substrate addition and measured after 20 mins by Dixon plot analysis; parameters: species or system Bos taurus
[13] = Uncompetitive inhibition of bovine kidney alpha-fucosidase using p-nitrophenyl glycopyranoside as substrate preincubated for 5 mins followed by substrate addition and measured after 20 mins by Cornish-Bowden plot analysis; parameters: species or system Bos taurus
[14] = Uncompetitive inhibition of human alpha-fucosidase using p-nitrophenyl glycopyranoside as substrate preincubated for 5 mins followed by substrate addition and measured after 20 mins by Cornish-Bowden plot analysis
[15] = Competitive inhibition of human alpha-fucosidase using p-nitrophenyl glycopyranoside as substrate preincubated for 5 mins followed by substrate addition and measured after 20 mins by Dixon plot analysis

inhibition [4]	inhibition (Canavalia ensiformis)	inhibition [5]	inhibition (Aspergillus niger)	inhibition (Saccharomyces cerevisiae)	inhibition (Prunus dulcis)	inhibition (Oryza sativa)	inhibition (Cornu aspersum)	Structure (SMILES)	also measured
inactive	inactive	inactive	inactive	inactive	inactive	inactive	inactive	CCCCCCn1cc(CNC(=O)c2cc([C@H]3NC[C@@H](O)[C@H]3O)oc2C)nn1	inhibition (Homo sapiens): inactive; IC50 (Beta-galactosidase [1]): 94000 nM; IC50 [2]: 37000 nM; Ki (Beta-galactosidase [3]): 58000 nM
inactive	inactive	inactive	inactive	inactive	inactive	inactive	inactive	C[C@@H]1N[C@@H](c2cn(-c3ccc(S(=O)(=O)c4ccc(-n5cc([C@@H]6N[C@@H](C)[C@@H](O)[C@H]6O)nn5)cc4)cc3)nn2)[C@H](O)[C@@H]1O	inhibition [6]: inactive; IC50 [7]: 210 nM; IC50 [8]: 0.48 nM; inhibition (Bos taurus [9]): 91%; inhibition (Bos taurus [10]): 96%; inhibition (Bos taurus [11]): Active; Ki [12]: 0.15 nM; Ki [13]: 0.52 nM; Ki [14]: 150 nM; Ki [15]: 60 nM
